In brackets after ≈: the same amount, converted by molar mass. Like-named read-outs stand apart in the source and are kept apart here.
Experiments:
Type in all cases: in vivo
[1] = system: IV instar larvae of Aedes aegypti; experiment: Larvicidal activity against mosquito larvae (WHO procedure, 24 hours exposure); settings: read-out: LC50 ± S.E.
Protocol: To determine the efficacy of different analogues of Alkylxanthates against mosquito larvae, standard procedures as recommended by World Health Organization (1981) were followed with minor modifications. The desired concentration of the test solution was obtained by adding 1 ml of an appropriate stock solution to 249 ml of tap water in 500 ml beaker. Test solutions of different concentrations were prepared by diluting the stock solution in dechlorinated and filtered tap water followed by thorough mixing. Tween -80 [Poly (oxyethylene)n - sorbitan monooleate] was used as an emulsifier at the concentration of 0.002% (v/v) to the final test solution whenever required. Control solutions were prepared in tapwater using acetone or ethanol and Tween -80 (0.002%). To each of the -test concentrations, 25 late third or early fourth instar larvae which were acclimatized earlier were added. At least three replicates of each of the tests were made. Based on the results, five to ten suitable concentrations, which produced 10 to 100% mortality, were selected for detailed study and for calculating LC50 values. Mortality was observed 24 hours after exposing the larvaeto test solutions and the data was corrected for control mortality if any, by using Abbot's formula (Abbot 1925). All tests were carried out at a room temperature maintained at 28 ± 1°C.
(§1) The average mortality and growth inhibition data of experiments was subjected to IBM AT 386 computer analysis at our laboratory for calculating LC50, LD50, EC50, ED50,etc., and other statistical data. The software used was developed by Reddy et al., 1992.

[2] = system: Brine shrimp, Artemia salina; experiment: Brine shrimp bioassay (toxic activity); settings: read-out: LC50 ± S.E.
Protocol: Brine shrimp (Artemiasalina) eggs were hatched in a shallow rectangular dish filled with artificial seawater, which was prepared with commercial salt mixture and double distilled water. A plastic divider with several 2-mm holes was clamped in the dish to make two unequal compartments. The eggs were sprinkled into the larger compartment that was darkened, while the smaller compartment was illuminated. After 48 hours the phototropic nauplii were collected by pipette from the lighted side, being separated by the divider from their shells.
Twenty shrimps were transferred to each sample vial and artificial seawater was added to make 5 ml. The nauplii can becounted macroscopically in the stem of the pipette against a lighted back ground. A drop of dry yeast suspension (3µg in5ml artificial seawater) was added as food to each vial (Meyer, et al., 1982). Survivors were counted with the aid of a 3 x magnifying glass, after 24 hours, and the percent mortality at each concentration and control was determined. The 24 hour counts were more useful. During control deaths, the data was corrected using Abbot's formula.
as §1

[3] = system: late third instar of Spodoptera litura; experiment: Antifeedant activity, painted leaf disks of Ricinus cummunis; set-up: key to A.I (Anti-feedent index): percent protection of treated vs untreated leaf disks; settings: for Concentration required for 50% leaf protection EC50 ±S.E: oral feeding, leaf disk
Protocol: as §1
Methodology for Antifeedant activity: Tobacco caterpillar, Spodoptera litura F., larvae will be reared on Ricinus cummunis L. leaves at 27°C and 65-70% R.H. Known area (cm^2) of leaf disks were painted with exact amount of pure compound (dissolved in acetone) and were dried at room temperature till the carrier solvent evaporated. For each concentration 5 to 6 replicates were prepared and experiments were conducted individually. Control disks were dipped in carrier solvent (acetone) alone. Third instar larvae weighing 200-250 mg are selected from stock culture, starved for 4 hr, and will be used individually for the assay of antifeedant activity. After 12 and 24 hours, leaf area meter was used to measure the consumed area of treated and untreated leaves. Based on the data the percent protection of individual compound was calculated. All these properties were compared with well-known antifeedant isolated from neem kemal 'Azadiractin'. Control and test larvae arc transferred on fresh leaves and'monitored till adult emergence to study the growth and behavioral aspects of the insect.

[4] = system: Helicoverpa armigera (Hubner); experiment: Growth regulatory (IGR) activity, topical application
[5] = IV instar larvae, mortality after 24 hours

| Compound | LC50 [1, 5] [µg/mL] | LC50 ([2]; mortality after 24 hours) [µg/mL] | A.I (Anti-feedent index) ([3]; 10 µg/sq.cm.) | Percent leaf consumption 12 hr ([3]; 10 µg/sq.cm.) [%] | Percent leaf consumption 24 hr ([3]; 10 µg/sq.cm.) [%] | A.I (Anti-feedent index) ([3]; 15 µg/sq.cm.) | Percent leaf consumption 12 hr ([3]; 15 µg/sq.cm.) [%] | Percent leaf consumption 24 hr ([3]; 15 µg/sq.cm.) [%] | A.I (Anti-feedent index) ([3]; 20 µg/sq.cm.) | Percent leaf consumption 12 hr ([3]; 20 µg/sq.cm.) [%] | Percent leaf consumption 24 hr ([3]; 20 µg/sq.cm.) [%] | A.I (Anti-feedent index) ([3]; 25 µg/sq.cm.) | Percent leaf consumption 12 hr ([3]; 25 µg/sq.cm.) [%] | Percent leaf consumption 24 hr ([3]; 25 µg/sq.cm.) [%] | Concentration required for 50% leaf protection EC50 ±S.E [3] | LC50 ([1]; iv, 24 h) [µg/mL] | further results |
| --- | --- | --- | --- | --- | --- | --- | --- | --- | --- | --- | --- | --- | --- | --- | --- | --- | --- |
| CCCCOC(=S)SCSC(=S)OCCCC [Compound 5, Methylene Bis (n-butytxanthate)] | 5.33 ± 0.97 (≈ 17.1 µM) | 34.6 ± 3.91 (≈ 111 µM) | 5.50 | 48.5 | 85.1 | 22.27 | 35.2 | 60.4 | 35.14 | 22.5 | 45.6 | 64.22 | 3.5 | 20.7 | 17.11±1.36 µg/cm^2 |  | A.I (Anti-feedent index) ([3]; 30 µg/sq.cm.): 85.37; Percent leaf consumption 12 hr ([3]; 30 µg/sq.cm.): -0- %; Percent leaf consumption 24 hr ([3]; 30 µg/sq.cm.): 7.5% |
| CC(C)COC(=S)SCCSC(=S)OCC(C)C [Compound 4, Ethylene Bis (isobutylxanthate)] | 8.06 ± 0.22 (≈ 24.7 µM) | 25.8 ± 2.9 (≈ 78.9 µM) |  |  |  |  |  |  |  |  |  |  |  |  |  |  |  |
| S=C(OCC1CCCO1)SCSC(=S)OCC1CCCO1 (stereo not shown) [Compound 1, Methylene Bis(tetrahydrofurfurylxanthate)] |  | 5.63 ± 0.62 (≈ 15.3 µM) |  |  |  |  |  |  |  |  |  | 22.42 | 31.5 | 60.2 | 37.21±9.67 µg/cm^2 | 3.77 ± 0.59 (≈ 10.2 µM) | A.I (Anti-feedent index) ([3]; 12.5 µg/sq.cm.): 8.20; Percent leaf consumption 12 hr ([3]; 12.5 µg/sq.cm.): 48.6%; Percent leaf consumption 24 hr ([3]; 12.5 µg/sq.cm.): 80.6%; A.I (Anti-feedent index) ([3]; 35 µg/sq.cm.): 33.52; Percent leaf consumption 12 hr ([3]; 35 µg/sq.cm.): 25.9%; Percent leaf consumption 24 hr ([3]; 35 µg/sq.cm.): 47.3%; A.I (Anti-feedent index) ([3]; 50 µg/sq.cm.): 35.23; Percent leaf consumption 12 hr ([3]; 50 µg/sq.cm.): 22.1%; Percent leaf consumption 24 hr ([3]; 50 µg/sq.cm.): 45.5% |
| CCCCOC(=S)SCc1ccc(CSC(=S)OCCCC)cc1 [Compound 12, p-Xylene Bis (n-butylcanthate)] | 7.35 ± 0.51 (≈ 18.3 µM) | 45.2 ± 5.63 (≈ 112 µM) | 2.59 | 57.3 | 90.2 | 5.97 | 62.4 | 84.3 | 24.51 | 35.2 | 57.6 | 58.86 | 20.5 | 24.6 | 20.45±1.76 µg/cm^2 |  |  |
| CC[C@@]1(O)C(=O)OCc2c1cc1n(c2=O)Cc2cc3ccccc3nc2-1 [Chamtothecin, reference compound] |  |  |  |  |  |  |  |  |  |  |  |  |  |  |  |  | LC50 ([2]; 24 h): 2.53 ± 0.43 µg/mL (≈ 7.26 µM) |
| CC(C)COC(=S)SCc1cccc(F)c1 [Compound 3, m-Fluorobenzyl (isobutylxanthate)] |  | 22.5 ± 3.26 (≈ 87.2 µM) | 11.63 | 50.4 | 75.2 | 16.07 | 33.24 | 68.7 | 27.86 | 24.7 | 53.6 | 48.67 | 12.5 | 32.8 | 19.65±2.99 µg/cm^2 | 11.8 ± 2.35 (≈ 45.6 µM) |  |
| CCCCOC(=S)SCc1cccc(F)c1 [Compound 2, m-Fluorobenzyl (n-butylxanthate)] |  | 19 ± 2.83 (≈ 73.5 µM) |  |  |  |  |  |  |  |  |  |  |  |  |  | 12.5 ± 1.24 (≈ 48.5 µM) |  |
| C/C=C(\C)C(=O)O[C@H]1C[C@@H](OC(C)=O)[C@@]2(C(=O)OC)CO[C@H]3[C@@H](O)[C@@](C)([C@]45O[C@@]4(C)[C@H]4C[C@@H]5O[C@@H]5OC=C[C@@]54O)[C@H]4[C@]1(CO[C@]4(O)C(=O)OC)[C@@H]32 [Azadiractin, reference compound] |  |  | 48.09 | 18.6 | 33.3 | 54.98 | 16.4 | 27.6 | 76.42 | 4.2 | 12.7 |  |  |  | 6.34±.77 µg/cm^2 |  | A.I (Anti-feedent index) ([3]; 5.0 µg/sq.cm.): 24.84; Percent leaf consumption 12 hr ([3]; 5.0 µg/sq.cm.): 33.7%; Percent leaf consumption 24 hr ([3]; 5.0 µg/sq.cm.): 57.2%; IGR activity, mode of action [4]: less larvicidal activity, minimized in the formation of normal pupae and emergence of normal adults |
